Laboratory results published in patent US7432392B2, “Ester derivatives and medical use thereof” (Japan Tobacco Inc., priority 2003, dated 2008).

Key:
[1] = test system: apolipoprotein B secretion from HepG2 cells; assay: Inhibition of apolipoprotein B secretion from HepG2 cells; assay type: cell-based; details: Homo sapiens, about 20 hours incubation, apo B in supernatant by ELISA
Protocol: HepG2 cells were suspended in Dulbecco's Modified Eagle's Medium (DMEM) (containing 10% fetal bovine serum, 100 units/mL penicillin and 100 μg/mL streptomycin), and placed on a 96-well plate (4×10^4 cells/well), then incubated for 24 hours. After removal of the medium, DMEM was replaced by a medium containing a sample dissolved in DMSO or a medium containing DMSO (concentration of DMSO: 0.5%) and incubation was further performed for about 20 hours, after which the supernatant was recovered, and concentration of apo B in the supernatant was assayed by Enzyme-Linked Immunosorbent Assay (ELISA)
ELISA was carried out as follows. Anti-human apo B monoclonal antibody (0.5 μg/well) diluted with a 50 mM sodium carbonate/sodium bicarbonate buffer was placed in a 96-well plate for ELISA, and allowed to stand at room temperature for 15 hours. After washing the plate, a blocking solution (250 μL/well) was placed in the well, and allowed to stand at room temperature for 1.5 hours. After washing the plate, a standard and a sample (100 μL/well) were placed in the well and allowed to stand at room temperature for 1.5 hours. The standard was prepared by adjusting the concentration of the purified human apo B with the DMEM to 0 to 250 ng/mL. After washing the plate, an anti-human apo B polyclonal antibody labeled with a horse radish peroxidase which was diluted in 1:1000 with DEME (100 μL/well) was added, and allowed to stand at room temperature for 1.5 hours. After washing the plate, 2,2-azinobis(3-ethylbenzothiazoline-6-sulfonic acid) solution (100 μL/well) was placed in the well, and allowed to stand at room temperature for 0.5 hour. The reaction was stopped by addition of 2% oxalic acid (100 μL/well), and absorbency at 405 nm was measured. Concentration of apo B in the sample was calculated on the basis of a standard curve of the standard. Inhibition rate (%) was calculated from the assayed values in accordance with the following equation. Inhibition rate (%)=100×(1 minus (concentration of apo B in sample group/concentration of apo B in DMSO group).
Based on the above equation, 50% inhibition concentration (IC50) was determined.

[2] = Metabolic stability test in small intestine S9 (human); assay type: in vitro ADME; details: Human small intestine S9, 2 mg protein/mL, 37° C.
Protocol: (§1) Human and hamster liver S9 (final concentration: 2 mg protein/mL), and human and hamster small intestine S9 (final concentration: 2 mg protein/mL) were each suspended in 100 mM potassium phosphate buffer (pH 7.4, containing β-nicotinamide adenine dinucleotide phosphate: 1.3 mM, D-glucose-6-phosphate: 3.3 mM, magnesium chloride: 3.3 mM, and glucose-6-phosphate dehydrogenase: 0.4 U/mL). The suspensions were mixed with a solution of a sample (Example 1) in DMSO. The solutions were incubated at 37° C. for 0, 10 and 60 minutes, and an organic solvent was added thereto. The solutions were centrifuged, and the concentration of the sample (unchanged form) in the supernatant was determined by high performance liquid chromatography/mass spectrometry (LC/MS). Based on the data obtained, remaining rate (%) was calculated according to the following equation. Remaining rate(%)=amount of sample 10 or 60 minutes after incubation/amount of sample at zero time after incubation×100

[3] = Metabolic stability test in liver S9 (hamster); assay type: in vitro ADME; details: Hamster liver S9, 2 mg protein/mL, 37° C.
Protocol: as §1

In the case of `CCOC(=O)C(COC(=O)Cc1ccc(NC(=O)c2ccccc2-c2ccc(C(F)(F)F)cc2)c(OC(C)=O)c1)(C(=O)OCC)c1ccccc1` [Example 1, 2-(2-{3-acetoxy-4-[(4′-trifluoromethyl-biphenyl-2-carbonyl)amino]phenyl}acetoxymethyl)-2-phenylmalonic acid diethyl ester], the IC50 [1] is reported as under 1000 nM, the “Remaining rate (%) after 10 minutes” value ([2]; 10 minutes) is reported as 7.5% and the “Remaining rate (%) after 60 minutes” value ([2]; 60 minutes) is reported as 1.1%. The “Remaining rate (%) after 10 minutes” value ([3]; 10 minutes) was 1.6% and the “Remaining rate (%) after 60 minutes” value ([3]; 60 minutes) was 0.0%.
